Laboratory results reported in patent US10717716B2, “1,3,4-oxadiazole derivative compounds as histone deacetylase 6 inhibitor, and the pharmaceutical composition comprising the same” (Chong Kun Dang Pharmaceutical Corp., priority 2015, dated 2020).
pIC50: −log10 of the molar value.

Target: T1, human recombinant HDAC6 (Homo sapiens, UniProt Q9UBN7)
T1 construct: purchased Calbiochem 382180
T1 sequence (Q9UBN7 1-1215): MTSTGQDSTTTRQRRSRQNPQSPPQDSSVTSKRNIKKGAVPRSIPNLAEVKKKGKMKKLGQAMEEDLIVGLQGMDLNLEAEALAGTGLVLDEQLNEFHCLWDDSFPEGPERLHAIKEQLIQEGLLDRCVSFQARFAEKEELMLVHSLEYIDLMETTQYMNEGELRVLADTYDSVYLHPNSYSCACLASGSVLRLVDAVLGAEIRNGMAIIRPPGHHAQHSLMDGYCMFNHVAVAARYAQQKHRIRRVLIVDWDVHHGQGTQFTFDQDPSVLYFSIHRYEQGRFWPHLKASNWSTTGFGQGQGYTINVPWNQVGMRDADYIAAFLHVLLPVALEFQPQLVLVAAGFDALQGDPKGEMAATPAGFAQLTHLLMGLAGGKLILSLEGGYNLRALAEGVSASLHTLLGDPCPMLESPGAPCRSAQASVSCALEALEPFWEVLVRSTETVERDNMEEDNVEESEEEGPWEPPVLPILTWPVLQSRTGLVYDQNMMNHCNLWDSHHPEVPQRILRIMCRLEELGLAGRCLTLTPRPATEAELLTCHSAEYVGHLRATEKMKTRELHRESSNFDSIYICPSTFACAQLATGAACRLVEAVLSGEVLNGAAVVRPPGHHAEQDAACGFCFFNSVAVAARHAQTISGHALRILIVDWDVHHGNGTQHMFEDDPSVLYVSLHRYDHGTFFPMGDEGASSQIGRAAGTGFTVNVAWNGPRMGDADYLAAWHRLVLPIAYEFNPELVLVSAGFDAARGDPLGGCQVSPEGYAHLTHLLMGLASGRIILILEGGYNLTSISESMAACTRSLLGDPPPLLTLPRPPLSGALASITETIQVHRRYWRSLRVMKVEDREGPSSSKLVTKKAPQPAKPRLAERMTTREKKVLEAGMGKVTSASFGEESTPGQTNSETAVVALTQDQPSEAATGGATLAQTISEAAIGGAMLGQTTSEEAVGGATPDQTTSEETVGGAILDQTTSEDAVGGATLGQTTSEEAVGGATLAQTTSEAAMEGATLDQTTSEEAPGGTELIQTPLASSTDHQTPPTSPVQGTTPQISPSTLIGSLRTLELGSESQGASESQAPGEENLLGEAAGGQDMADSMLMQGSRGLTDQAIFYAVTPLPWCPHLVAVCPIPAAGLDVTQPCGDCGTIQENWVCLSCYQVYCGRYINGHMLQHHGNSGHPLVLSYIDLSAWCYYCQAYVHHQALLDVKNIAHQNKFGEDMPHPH
Assay: HDAC6 enzyme activity inhibition assay (HDAC Fluorimetric Drug Discovery Kit)
Assay type: biochemical
Settings: for HDAC6 selectivity (fold): HDAC6 over HDAC1; for pIC50: human recombinant HDAC6, same protocol as HDAC1, read-out: HDAC6
Method in brief: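 Fluorimetric deacetylase assay: 5-fold serial compound dilutions, 0.3 μg recombinant human enzyme (HDAC1 or HDAC6, same protocol), 10 μM Fluor de Lys-SIRT1 substrate, 60 min at 30 °C. Signal developed 30 min, measured at 360/460 nm; IC50 values derived.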

Question: With `O=C(N1CCN(C2COC2)CC1)N(Cc1ccc(-c2nnc(C(F)F)o2)cc1)c1ccc(Cl)cc1` [Compound 21945, N-(4-Chlorophenyl)-N-(4-(5-(difluoromethyl)-1,3,4-oxadiazol-2-yl)benzyl)-4-(oxetan-3-yl)piperazine-1-carboxamide] as the compound, how does the “HDAC6 selectivity (fold)” value read?
Answer: The value was 52 fold.

Question: What about the pIC50 of the same compound?
Answer: The pIC50 was 6.71.

Question: What does the source list for `O=C(N1CCN(C2COC2)CC1)N(Cc1ccc(-c2nnc(C(F)F)o2)cc1F)c1ccc(Cl)cc1` [Compound 21946, N-(4-Chlorophenyl)-N-(4-(5-(difluoromethyl)-1,3,4-oxadiazol-2-yl)-2-fluorobenzyl)-4-(oxetan-3-yl)piperazine-1-carboxamide]?
Answer: HDAC6 selectivity (fold): 81 fold; pIC50: 6.91

Question: Which results are given for `O=C(N1CCN(C2COC2)CC1)N(Cc1ccc(-c2nnc(C(F)F)o2)cn1)c1ccc(Cl)cc1` [Compound 21947, N-(4-Chlorophenyl)-N-((5-(5-(difluoromethyl)-1,3,4-oxadiazol-2-yl)pyridin-2-yl)methyl)-4-(oxetan-3-yl)piperazine-1-carboxamide]?
Answer: HDAC6 selectivity (fold): 112 fold; pIC50: 7.05

Question: `COc1cccc(N(Cc2ccc(-c3nnc(C(F)F)o3)cn2)C(=O)N2CCN(C3COC3)CC2)c1` [Compound 21950, N-((5-(5-(Difluoromethyl)-1,3,4-oxadiazol-2-yl)pyridin-2-yl)methyl)-N-(3-methoxyphenyl)-4-(oxetan-3-yl)piperazine-1-carboxamide] was tested. Which “HDAC6 selectivity (fold)” value did it give?
Answer: Its value is 64 fold.

Question: What about the pIC50 of the same compound?
Answer: The pIC50 was 6.80.

Question: Which results are given for `COc1ccc(N(Cc2ccc(-c3nnc(C(F)F)o3)cc2)C(=O)N2CCN(C3COC3)CC2)cc1` [Compound 21951, N-(4-(5-(Difluoromethyl)-1,3,4-oxadiazol-2-yl)benzyl)-N-(4-methoxyphenyl)-4-(oxetan-3-yl)piperazine-1-carboxamide]?
Answer: HDAC6 selectivity (fold): 26 fold; pIC50: 6.41

Question: Which “HDAC6 selectivity (fold)” value does the source give for `COc1ccc(N(Cc2ccc(-c3nnc(C(F)F)o3)cc2F)C(=O)N2CCN(C3COC3)CC2)cc1` [Compound 21952, N-(4-(5-(Difluoromethyl)-1,3,4-oxadiazol-2-yl)-2-fluorobenzyl)-N-(4-methoxyphenyl)-4-(oxetan-3-yl)piperazine-1-carboxamide] here?
Answer: The value was 58 fold.

Question: And the pIC50?
Answer: Its pIC50 is 6.76.

Question: How did the “HDAC6 selectivity (fold)” value turn out when `COc1ccc(N(Cc2ccc(-c3nnc(C(F)F)o3)cn2)C(=O)N2CCN(C3COC3)CC2)cc1` [Compound 21953, N-((5-(5-(Difluoromethyl)-1,3,4-oxadiazol-2-yl)pyridin-2-yl)methyl)-N-(4-methoxyphenyl)-4-(oxetan-3-yl)piperazine-1-carboxamide] was run?
Answer: The value was 62 fold.

Question: And the pIC50?
Answer: Its pIC50 is 6.80.

Question: How did the “HDAC6 selectivity (fold)” value turn out when `O=C(N1CCN(C2COC2)CC1)N(Cc1ccc(-c2nnc(C(F)F)o2)cc1F)c1ccccc1` [Compound 21955, N-(4-(5-(Difluoromethyl)-1,3,4-oxadiazol-2-yl)-2-fluorobenzyl)-4-(oxetan-3-yl)-N-phenylpiperazine-1-carboxamide] was run?
Answer: Its value is 113 fold.

Question: What about the pIC50 of the same compound?
Answer: The pIC50 was 7.05.

Question: `O=C(NCCN1CCCC1)N(Cc1ccc(-c2nnc(C(F)F)o2)cc1F)c1ccccc1` [Compound 21956, 1-(4-(5-(Difluoromethyl)-1,3,4-oxadiazol-2-yl)-2-fluorobenzyl)-1-phenyl-3-(2-(pyrrolidin-1-yl)ethyl)urea] was tested. Which “HDAC6 selectivity (fold)” value did it give?
Answer: The value was 60 fold.

Question: And the pIC50?
Answer: The pIC50 was 6.78.

Question: For `O=C(NCCN1CCCCC1)N(Cc1ccc(-c2nnc(C(F)F)o2)cc1F)c1ccccc1` [Compound 21957, 1-(4-(5-(Difluoromethyl)-1,3,4-oxadiazol-2-yl)-2-fluorobenzyl)-1-phenyl-3-(2-(piperidin-1-yl)ethyl)urea], which “HDAC6 selectivity (fold)” value is on record?
Answer: Its value is 116 fold.

Question: What about the pIC50 of the same compound?
Answer: Its pIC50 is 7.07.

Question: What does the source list for `CN1CCN(CCNC(=O)N(Cc2ccc(-c3nnc(C(F)F)o3)cc2F)c2ccccc2)CC1` [Compound 21958, 1-(4-(5-(Difluoromethyl)-1,3,4-oxadiazol-2-yl)-2-fluorobenzyl)-3-(2-(4-methylpiperazin-1-yl)ethyl)-1-phenylurea]?
Answer: HDAC6 selectivity (fold): 115 fold; pIC50: 7.06

Question: With `CN1CCC(c2ccc(N(Cc3ccc(-c4nnc(C(F)F)o4)cc3F)C(=O)N3CCS(=O)(=O)CC3)cc2)CC1` [Compound 21970, N-(4-(5-(difluoromethyl)-1,3,4-oxadiazol-2-yl)-2-fluorobenzyl)-N-(4-(1-methylpiperidin-4-yl)phenyl)thiomorpholine-4-carboxamide 1,1-dioxide] as the compound, how does the “HDAC6 selectivity (fold)” value read?
Answer: Its value is 6 fold.

Question: And the pIC50?
Answer: The pIC50 was 5.81.

Question: With `CCN1CCN(CCOc2ccc(N(Cc3ccc(-c4nnc(C(F)F)o4)cc3F)C(=O)N3CCS(=O)(=O)CC3)cc2)CC1` [Compound 21971, N-(4-(5-(difluoromethyl)-1,3,4-oxadiazol-2-yl)-2-fluorobenzyl)-N-(4-(2-(4-ethylpiperazin-1-yl)ethoxy)phenyl)thiomorpholine-4-carboxamide 1,1-dioxide] as the compound, how does the “HDAC6 selectivity (fold)” value read?
Answer: The value was 59 fold.

Question: And the pIC50?
Answer: The pIC50 was 6.77.

Question: With `CCN1CCN(CCCOc2ccc(N(Cc3ccc(-c4nnc(C(F)F)o4)cc3F)C(=O)N3CCS(=O)(=O)CC3)cc2)CC1` [Compound 21972, N-(4-(5-(difluoromethyl)-1,3,4-oxadiazol-2-yl)-2-fluorobenzyl)-N-(4-(3-(4-ethylpiperazin-1-yl)propoxy)phenyl)thiomorpholine-4-carboxamide 1,1-dioxide] as the compound, how does the “HDAC6 selectivity (fold)” value read?
Answer: The value was 38 fold.

Question: What about the pIC50 of the same compound?
Answer: Its pIC50 is 6.58.

Question: Which “HDAC6 selectivity (fold)” value does the source give for `CCN1CCN(CCCCOc2ccc(N(Cc3ccc(-c4nnc(C(F)F)o4)cc3F)C(=O)N3CCS(=O)(=O)CC3)cc2)CC1` [Compound 21973, N-(4-(5-(difluoromethyl)-1,3,4-oxadiazol-2-yl)-2-fluorobenzyl)-N-(4-(4-(4-ethylpiperazin-1-yl)butoxy)phenyl)thiomorpholine-4-carboxamide 1,1-dioxide] here?
Answer: Its value is 39 fold.

Question: And the pIC50?
Answer: The pIC50 was 6.59.

Question: How did the “HDAC6 selectivity (fold)” value turn out when `Cc1nnc(N(Cc2ccc(-c3nnc(C(F)F)o3)cc2F)C(=O)N2CCS(=O)(=O)CC2)s1` [Compound 21979, N-(4-(5-(difluoromethyl)-1,3,4-oxadiazol-2-yl)-2-fluorobenzyl)-N-(5-methyl-1,3,4-thiadiazol-2-yl)thiomorpholine-4-carboxamide 1,1-dioxide] was run?
Answer: The value was 15 fold.

Question: What about the pIC50 of the same compound?
Answer: The pIC50 was 6.17.

Question: Which results are given for `Cc1nnc(N(Cc2ccc(-c3nnc(C(F)F)o3)cc2F)C(=O)N2CCOCC2)s1` [Compound 21980, N-(4-(5-(difluoromethyl)-1,3,4-oxadiazol-2-yl)-2-fluorobenzyl)-N-(5-methyl-1,3,4-thiadiazol-2-yl)morpholine-4-carboxamide]?
Answer: HDAC6 selectivity (fold): 10 fold; pIC50: 5.99

Question: With `O=C(N1CCOCC1)N(Cc1ccc(-c2nnc(C(F)F)o2)cc1F)c1nncs1` [Compound 21981, N-(4-(5-(difluoromethyl)-1,3,4-oxadiazol-2-yl)-2-fluorobenzyl)-N-(1,3,4-thiadiazol-2-yl) morpholine-4-carboxamide] as the compound, how does the “HDAC6 selectivity (fold)” value read?
Answer: The value was 13 fold.

Question: And the pIC50?
Answer: Its pIC50 is 6.12.

Question: Which “HDAC6 selectivity (fold)” value does the source give for `O=C(NCCN1CCOCC1)N(Cc1ccc(-c2nnc(C(F)F)o2)cc1F)c1ccccc1` [Compound 21982, 1-(4-(5-(Difluoromethyl)-1,3,4-oxadiazol-2-yl)-2-fluorobenzyl)-3-(2-morpholinoethyl)-1-phenylurea] here?
Answer: The value was 96 fold.

Question: And the pIC50?
Answer: Its pIC50 is 6.98.

Question: What does the source list for `O=C(NCCN1CC(F)(F)C1)N(Cc1ccc(-c2nnc(C(F)F)o2)cc1F)c1ccccc1` [Compound 21983, 3-(2-(3,3-Difluoroazetidin-1-yl)ethyl)-1-(4-(5-(difluoromethyl)-1,3,4-oxadiazol-2-yl)-2-fluorobenzyl)-1-phenylurea]?
Answer: HDAC6 selectivity (fold): 63 fold; pIC50: 6.80
